± gives the standard deviation of the averaged measurements.
What follows are test systems tested with CN(Cc1cnc2nc(N)nc(N)c2n1)c1ccc(C(=O)N[C@@H](CCC(=O)O)C(=O)O)cc1 [METHOTREXATE] (assay: surviving fraction relative to DMSO-only wells; higher = less growth inhibition). Conditions: 50 nM; exposure time: 5 days.
In short: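 Tumour cell lines in log phase were plated in 384-well plates at 250–500 cells per well, then, after 24 hours, exposed continuously for five days to inhibitors at 0.5, 1, 5, 10, 50, 100, 500 and 1000 nM. Viability came from CellTiter-Glo luminescence, and surviving fraction is that signal normalised to the median of DMSO-only wells. Plates were read after 10 minutes at room temperature, and each line, screened three times, was kept only when replicate Pearson r was >0.7 and median Z' was >0.3.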

| Test System | surviving fraction |
| --- | --- |
| HU09 BONE | 0.589 ± 0.031 |
| JIMT1 BREAST | 0.305 ± 0.028 |
| JURKAT HAEMATOPOIETIC AND LYMPHOID TISSUE | 0.036 ± 0.001 |
| KPD BONE | 1.08 ± 0.087 |
| LM7 BONE | 0.919 ± 0.033 |
| MCF7 BREAST | 0.569 ± 0.011 |
| MDAMB134 BREAST | 1.12 ± 0.21 |
| MDAMB157 BREAST | 0.946 ± 0.01 |
| MDAMB231 BREAST | 1.02 ± 0.02 |
| MDAMB361 BREAST | 0.947 ± 0.082 |
| MDAMB436 BREAST | 0.677 ± 0.096 |
| MDAMB453 BREAST | 0.966 ± 0.024 |
| MDAMB468 BREAST | 0.263 ± 0.015 |
| MFM223 BREAST | 1.09 ± 0.096 |
| MG63 BONE | 0.364 ± 0.016 |
| MHM BONE | 0.784 ± 0.016 |
| NCIH441 LUNG | 1.04 ± 0.12 |
| NOS1 BONE | 1.26 ± 0.25 |
| NY BONE | 0.56 ± 0.023 |
| OS25HAL BONE | 0.357 ± 0.022 |
| OSHN BONE | 0.282 ± 0.031 |

| Test System | surviving fraction |
| --- | --- |
| PCI30 HEADNECK | 1.05 ± 0.055 |
| RDES SOFT TISSUE | 0.055 ± 0.0036 |
| S68 BREAST | 1.07 ± 0.13 |
| SAOS2 BONE | 1.04 ± 0.031 |
| SCC36 HEADNECK | 0.828 ± 0.022 |
| SCC47 HEADNECK | 0.827 ± 0.04 |
| SCC90 HEADNECK | 0.954 ± 0.015 |
| SG27 HEADNECK | 1.07 ± 0.034 |
| SG28 HEADNECK | 1.04 ± 0.017 |
| SG31 HEADNECK | 1.16 ± 0.2 |
| SG32 HEADNECK | 0.899 ± 0.039 |
| SG43 HEADNECK | 0.881 ± 0.092 |
| SIHA CERVIX | 0.8 ± 0.014 |
| SJSA1 BONE | 1.7 ± 0.065 |
| SKBR3 BREAST | 0.784 ± 0.13 |
| SNU475 LIVER | 0.822 ± 0.13 |
| SUM44 BREAST | 1.33 ± 0.5 |
| SUM149 BREAST | 0.848 ± 0.074 |
| SUM149.B1*.S BREAST | 0.854 ± 0.035 |
| SUM159 BREAST | 1.03 ± 0.038 |

Same assay, conditions: 100 nM; exposure time: 5 days

| Test System | surviving fraction |
| --- | --- |
| HU09 BONE | 0.459 ± 0.051 |
| JIMT1 BREAST | 0.286 ± 0.029 |
| JURKAT HAEMATOPOIETIC AND LYMPHOID TISSUE | 0.0293 ± 0.0015 |
| KPD BONE | 1.17 ± 0.021 |
| LM7 BONE | 0.885 ± 0.065 |
| MCF7 BREAST | 0.588 ± 0.035 |
| MDAMB134 BREAST | 0.858 ± 0.073 |
| MDAMB157 BREAST | 0.947 ± 0.06 |
| MDAMB231 BREAST | 1.01 ± 0.044 |
| MDAMB361 BREAST | 0.879 ± 0.037 |
| MDAMB436 BREAST | 0.609 ± 0.057 |
| MDAMB453 BREAST | 0.757 ± 0.028 |
| MDAMB468 BREAST | 0.083 ± 0.0027 |
| MFM223 BREAST | 0.98 ± 0.046 |
| MG63 BONE | 0.197 ± 0.0027 |
| MHM BONE | 0.723 ± 0.04 |
| NCIH441 LUNG | 0.882 ± 0.067 |
| NOS1 BONE | 1.4 ± 0.33 |
| NY BONE | 0.566 ± 0.03 |
| OS25HAL BONE | 0.217 ± 0.017 |
| OSHN BONE | 0.265 ± 0.0081 |

| Test System | surviving fraction |
| --- | --- |
| PCI30 HEADNECK | 0.96 ± 0.029 |
| RDES SOFT TISSUE | 0.0457 ± 0.0015 |
| S68 BREAST | 1.21 ± 0.16 |
| SAOS2 BONE | 0.841 ± 0.035 |
| SCC36 HEADNECK | 0.731 ± 0.017 |
| SCC47 HEADNECK | 0.814 ± 0.03 |
| SCC90 HEADNECK | 0.852 ± 0.068 |
| SG27 HEADNECK | 1.25 ± 0.021 |
| SG28 HEADNECK | 1.12 ± 0.087 |
| SG31 HEADNECK | 1.18 ± 0.19 |
| SG32 HEADNECK | 1.02 ± 0.2 |
| SG43 HEADNECK | 0.678 ± 0.091 |
| SIHA CERVIX | 0.835 ± 0.034 |
| SJSA1 BONE | 1.79 ± 0.12 |
| SKBR3 BREAST | 0.629 ± 0.038 |
| SNU475 LIVER | 0.854 ± 0.072 |
| SUM44 BREAST | 1.17 ± 0.38 |
| SUM149 BREAST | 0.751 ± 0.057 |
| SUM149.B1*.S BREAST | 0.767 ± 0.052 |
| SUM159 BREAST | 0.951 ± 0.018 |

Same assay, conditions: 500 nM; exposure time: 5 days

| Test System | surviving fraction |
| --- | --- |
| HU09 BONE | 0.335 ± 0.018 |
| JIMT1 BREAST | 0.285 ± 0.042 |
| JURKAT HAEMATOPOIETIC AND LYMPHOID TISSUE | 0.0293 ± 0.00058 |
| KPD BONE | 1.02 ± 0.024 |
| LM7 BONE | 0.699 ± 0.042 |
| MCF7 BREAST | 0.573 ± 0.039 |
| MDAMB134 BREAST | 0.75 ± 0.06 |
| MDAMB157 BREAST | 0.839 ± 0.044 |
| MDAMB231 BREAST | 0.811 ± 0.017 |
| MDAMB361 BREAST | 0.74 ± 0.045 |
| MDAMB436 BREAST | 0.65 ± 0.14 |
| MDAMB453 BREAST | 0.655 ± 0.039 |
| MDAMB468 BREAST | 0.0627 ± 0.0057 |
| MFM223 BREAST | 1.04 ± 0.035 |
| MG63 BONE | 0.178 ± 0.01 |
| MHM BONE | 0.689 ± 0.019 |
| NCIH441 LUNG | 0.882 ± 0.11 |
| NOS1 BONE | 1.19 ± 0.13 |
| NY BONE | 0.475 ± 0.026 |
| OS25HAL BONE | 0.166 ± 0.0076 |
| OSHN BONE | 0.251 ± 0.023 |

| Test System | surviving fraction |
| --- | --- |
| PCI30 HEADNECK | 0.811 ± 0.016 |
| RDES SOFT TISSUE | 0.0463 ± 0.0046 |
| S68 BREAST | 1.04 ± 0.18 |
| SAOS2 BONE | 0.752 ± 0.018 |
| SCC36 HEADNECK | 0.575 ± 0.046 |
| SCC47 HEADNECK | 0.773 ± 0.033 |
| SCC90 HEADNECK | 0.424 ± 0.06 |
| SG27 HEADNECK | 1.12 ± 0.12 |
| SG28 HEADNECK | 1.123 ± 0.011 |
| SG31 HEADNECK | 1.26 ± 0.2 |
| SG32 HEADNECK | 1.1 ± 0.14 |
| SG43 HEADNECK | 0.909 ± 0.15 |
| SIHA CERVIX | 0.787 ± 0.018 |
| SJSA1 BONE | 1.64 ± 0.1 |
| SKBR3 BREAST | 0.503 ± 0.1 |
| SNU475 LIVER | 0.875 ± 0.047 |
| SUM44 BREAST | 0.819 ± 0.25 |
| SUM149 BREAST | 0.746 ± 0.027 |
| SUM149.B1*.S BREAST | 0.716 ± 0.046 |
| SUM159 BREAST | 0.884 ± 0.013 |

Same assay, conditions: 1000 nM; exposure time: 5 days

| Test System | surviving fraction |
| --- | --- |
| HU09 BONE | 0.337 ± 0.043 |
| JIMT1 BREAST | 0.295 ± 0.017 |
| JURKAT HAEMATOPOIETIC AND LYMPHOID TISSUE | 0.031 |
| KPD BONE | 1.05 ± 0.047 |
| LM7 BONE | 0.64 ± 0.023 |
| MCF7 BREAST | 0.572 ± 0.024 |
| MDAMB134 BREAST | 0.75 ± 0.011 |
| MDAMB157 BREAST | 0.857 ± 0.076 |
| MDAMB231 BREAST | 0.509 ± 0.015 |
| MDAMB361 BREAST | 0.735 ± 0.075 |
| MDAMB436 BREAST | 0.687 ± 0.083 |
| MDAMB453 BREAST | 0.66 ± 0.018 |
| MDAMB468 BREAST | 0.065 ± 0.001 |
| MFM223 BREAST | 1.01 ± 0.018 |
| MG63 BONE | 0.17 ± 0.0082 |
| MHM BONE | 0.699 ± 0.01 |
| NCIH441 LUNG | 0.855 ± 0.1 |
| NOS1 BONE | 1.12 ± 0.06 |
| NY BONE | 0.42 ± 0.025 |
| OS25HAL BONE | 0.164 ± 0.0066 |
| OSHN BONE | 0.255 ± 0.031 |

| Test System | surviving fraction |
| --- | --- |
| PCI30 HEADNECK | 0.758 ± 0.071 |
| RDES SOFT TISSUE | 0.0447 ± 0.0015 |
| S68 BREAST | 1.17 ± 0.12 |
| SAOS2 BONE | 0.753 ± 0.028 |
| SCC36 HEADNECK | 0.626 ± 0.082 |
| SCC47 HEADNECK | 0.789 ± 0.019 |
| SCC90 HEADNECK | 0.416 ± 0.031 |
| SG27 HEADNECK | 1.17 ± 0.07 |
| SG28 HEADNECK | 0.976 ± 0.084 |
| SG31 HEADNECK | 1.21 ± 0.024 |
| SG32 HEADNECK | 0.954 ± 0.078 |
| SG43 HEADNECK | 0.84 ± 0.055 |
| SIHA CERVIX | 0.782 ± 0.014 |
| SJSA1 BONE | 1.88 ± 0.062 |
| SKBR3 BREAST | 0.512 ± 0.13 |
| SNU475 LIVER | 0.843 ± 0.11 |
| SUM44 BREAST | 0.802 ± 0.29 |
| SUM149 BREAST | 0.781 ± 0.058 |
| SUM149.B1*.S BREAST | 0.733 ± 0.0095 |
| SUM159 BREAST | 0.897 ± 0.02 |
